Assay results published in PubChem BioAssay (NCI).
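Assay format: 96-well plates, 48-hour exposure. TGI marks complete inhibition of growth.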

Key:
Experiment in all cases: inhibition of tumour cell growth, NCI panel, 48 h
[1] = system: SNB-19 CNS
[2] = system: U251 CNS
[3] = system: SK-OV-3 ovarian
[4] = system: UO-31 renal
[5] = system: NCI-H226 lung
[6] = system: UACC-257 melanoma
[7] = system: SF-295 CNS
[8] = system: OVCAR-8 ovarian
[9] = system: SN12C renal
[10] = system: NCI-H23 lung
[11] = system: HCT-116 colon
[12] = system: HL-60(TB) leukemia
[13] = system: HOP-92 NSCLC
[14] = system: A549 NSCLC
[15] = system: MCF7 breast
[16] = system: MALME-3M melanoma
[17] = system: UACC-62 melanoma
[18] = system: IGROV1 ovarian
[19] = system: DMS 273 small cell lung
[20] = system: SF-539 CNS

With `N=C(N)SCCC(=O)CCSC(=N)N` the TGI [1] was greater than 100 µM, the TGI [2] was greater than 100 µM and the TGI [3] was greater than 100 µM. The TGI [4] was greater than 100 µM, the TGI [5] was greater than 100 µM and the TGI [6] was greater than 100 µM. The TGI [7] was greater than 100 µM, the TGI [8] was greater than 100 µM and the TGI [9] was greater than 100 µM. For the same compound, the TGI [10] was greater than 100 µM, the TGI [11] was greater than 100 µM and the TGI [12] was greater than 100 µM. It also gave a TGI [13] greater than 100 µM, a TGI [14] greater than 100 µM and a TGI [15] greater than 100 µM.
`COc1ccc2c(c1)OCCc1cn[nH]c1-2` showed a TGI [1] greater than 100 µM, a TGI [16] greater than 100 µM and a TGI [2] greater than 100 µM. The TGI [3] was greater than 100 µM, the TGI [4] was greater than 100 µM and the TGI [6] was greater than 100 µM. For the same compound, the TGI [17] was 84.3 µM, the TGI [18] was 56.1 µM and the TGI [7] was greater than 100 µM. The TGI [8] was greater than 100 µM, the TGI [9] was greater than 100 µM and the TGI [10] was greater than 100 µM. The TGI [19] was greater than 100 µM, the TGI [11] was greater than 100 µM and the TGI [12] was 36 µM. The TGI [13] was 61.6 µM, the TGI [14] was greater than 100 µM and the TGI [15] was greater than 100 µM. The TGI [20] was greater than 100 µM.
`COC(=O)C1=C(O)C(C(=O)OC)[C@]2(O)[C@@H](C(=O)OC)[C@H]1C[C@@H](c1ccccc1)[C@@H]2C(=O)OC` (some centres undefined) gave a TGI [1] of 68.7 µM, a TGI [16] of 45.1 µM and a TGI [2] of 30.7 µM. For the same compound, the TGI [3] was 47.3 µM, the TGI [4] was 26.6 µM and the TGI [5] was 61.5 µM. For the same compound, the TGI [6] was 25.8 µM, the TGI [17] was 25.1 µM and the TGI [9] was 32.1 µM. It also gave a TGI [10] of 32.1 µM, a TGI [11] of 21.8 µM and a TGI [12] greater than 100 µM. For the same compound, the TGI [15] was greater than 100 µM and the TGI [20] was 25.5 µM.
Compound `O=NN(CCF)C(=O)NC1CC2CCC1C2` (centres undefined) has a TGI [1] greater than 100 µM, a TGI [16] greater than 100 µM and a TGI [2] greater than 100 µM. The TGI [3] was greater than 100 µM, the TGI [4] was greater than 100 µM and the TGI [6] was greater than 100 µM. The TGI [17] was greater than 100 µM, the TGI [18] was greater than 100 µM and the TGI [7] was greater than 100 µM. It also gave a TGI [8] greater than 100 µM, a TGI [9] greater than 100 µM and a TGI [10] greater than 100 µM. The TGI [19] was greater than 100 µM, the TGI [11] was greater than 100 µM and the TGI [12] was greater than 100 µM. The TGI [13] was greater than 100 µM, the TGI [14] was greater than 100 µM and the TGI [15] was greater than 100 µM. The TGI [20] was greater than 100 µM.
With `C[S+](C)CC1OC(n2cnc3c(N)ncnc32)C(O)C1O` (centres undefined) the TGI [1] was greater than 225 µM, the TGI [16] was greater than 225 µM and the TGI [2] was greater than 225 µM. The TGI [3] was greater than 225 µM, the TGI [4] was greater than 225 µM and the TGI [5] was greater than 225 µM. It also gave a TGI [6] greater than 225 µM, a TGI [17] greater than 200 µM and a TGI [18] greater than 225 µM. It also gave a TGI [7] greater than 225 µM, a TGI [8] greater than 225 µM and a TGI [9] greater than 225 µM. The TGI [10] was greater than 225 µM, the TGI [19] was greater than 225 µM and the TGI [11] was greater than 225 µM. It also gave a TGI [12] greater than 225 µM, a TGI [13] greater than 225 µM and a TGI [14] greater than 225 µM. For the same compound, the TGI [15] was greater than 225 µM and the TGI [20] was greater than 225 µM.
With `CC(C)OP(=O)(OC(C)C)C1=NN(c2ccc([N+](=O)[O-])cc2)C(P(=O)(OC(C)C)OC(C)C)=NN1c1ccc([N+](=O)[O-])cc1` the TGI [1] was greater than 100 µM, the TGI [16] was greater than 100 µM and the TGI [2] was greater than 100 µM. The TGI [3] was greater than 100 µM, the TGI [4] was greater than 100 µM and the TGI [5] was greater than 100 µM. For the same compound, the TGI [17] was greater than 100 µM, the TGI [18] was greater than 100 µM and the TGI [8] was greater than 100 µM. It also gave a TGI [9] greater than 100 µM, a TGI [10] greater than 100 µM and a TGI [19] greater than 100 µM. The TGI [11] was greater than 100 µM, the TGI [12] was 16.4 µM and the TGI [13] was greater than 100 µM. It also gave a TGI [14] greater than 100 µM and a TGI [20] greater than 100 µM.
`Cc1ccc(Sc2ccccc2[N+](=O)[O-])cc1` showed a TGI [16] greater than 100 µM, a TGI [2] of 61.7 µM and a TGI [3] greater than 100 µM. For the same compound, the TGI [4] was greater than 100 µM, the TGI [5] was 71.2 µM and the TGI [6] was 67.8 µM. The TGI [17] was greater than 100 µM, the TGI [18] was greater than 100 µM and the TGI [7] was 70.9 µM. For the same compound, the TGI [8] was greater than 100 µM, the TGI [9] was greater than 100 µM and the TGI [10] was 78.2 µM. For the same compound, the TGI [19] was 82.5 µM, the TGI [11] was greater than 100 µM and the TGI [12] was 58.6 µM. The TGI [13] was 59.2 µM, the TGI [14] was greater than 100 µM and the TGI [20] was greater than 100 µM.
`CN(C)CCNC(=O)c1cccc2cc3cc(O)ccc3nc12` showed a TGI [1] of 3.53 µM, a TGI [16] of 2.54 µM and a TGI [2] of 4.46 µM. It also gave a TGI [3] of 4.27 µM, a TGI [5] of 2.48 µM and a TGI [6] of 2.94 µM. The TGI [17] was 2.74 µM, the TGI [18] was 4.43 µM and the TGI [7] was 3.4 µM. The TGI [8] was 3.34 µM, the TGI [9] was 4.65 µM and the TGI [10] was 3.24 µM. It also gave a TGI [19] of 2.52 µM, a TGI [11] of 5.73 µM and a TGI [12] of 2.37 µM. The TGI [13] was 3.81 µM, the TGI [14] was 3.47 µM and the TGI [15] was 6.47 µM. The TGI [20] was 4.23 µM.
Compound `O=Nn1c2ccccc2c2cc([N+](=O)[O-])ccc21` has a TGI [1] of 58.1 µM, a TGI [16] of 38.5 µM and a TGI [2] of 33.1 µM. It also gave a TGI [3] of 30.1 µM, a TGI [4] of 49.2 µM and a TGI [6] of 56.5 µM. It also gave a TGI [17] of 32.9 µM, a TGI [18] of 30.2 µM and a TGI [7] of 28.5 µM. For the same compound, the TGI [8] was 31.6 µM, the TGI [9] was 37 µM and the TGI [10] was 38.3 µM. The TGI [11] was 32.5 µM, the TGI [12] was greater than 100 µM and the TGI [13] was 29.8 µM. The TGI [14] was 73.2 µM, the TGI [15] was 58 µM and the TGI [20] was 37.2 µM.
